From ChEMBL document CHEMBL5653615 (J Biol Chem, 2013) come the findings set out here.

Molecules are shown by their SMILES.

The target in test [1] is Cyclin-dependent kinase 4/cyclin D1 (Homo sapiens) (UniProt P11802+P24385). Kind of test: Inhibition of human CDK4/cyclin D1 at 500 nM by HotSpot assay relative to control. It is filed as protein-complex assay.
In test [2] the target is T1, Serine/threonine-protein kinase Nek3 (Homo sapiens) (UniProt P51956).
T1 sequence (whole entry): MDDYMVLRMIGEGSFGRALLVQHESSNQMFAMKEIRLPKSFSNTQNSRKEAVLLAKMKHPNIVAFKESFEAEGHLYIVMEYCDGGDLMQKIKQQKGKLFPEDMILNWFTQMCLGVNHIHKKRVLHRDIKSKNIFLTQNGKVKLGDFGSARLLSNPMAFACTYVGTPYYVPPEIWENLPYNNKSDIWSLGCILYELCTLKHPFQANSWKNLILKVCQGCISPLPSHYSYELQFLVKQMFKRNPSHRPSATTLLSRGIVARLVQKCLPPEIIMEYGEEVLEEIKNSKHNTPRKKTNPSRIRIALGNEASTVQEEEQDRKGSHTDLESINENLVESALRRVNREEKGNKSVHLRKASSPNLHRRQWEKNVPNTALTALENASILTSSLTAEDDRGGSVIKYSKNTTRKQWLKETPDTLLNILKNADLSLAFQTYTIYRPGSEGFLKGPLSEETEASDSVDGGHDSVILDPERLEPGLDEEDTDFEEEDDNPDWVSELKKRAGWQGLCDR
In words: Inhibition of human NEK3 at 500 nM by HotSpot assay relative to control.

For test [3], the target named is Calcium/calmodulin-dependent protein kinase kinase 2 (Homo sapiens) (UniProt Q96RR4). Kind of test: Inhibition of human CAMKK2 at 500 nM by HotSpot assay relative to control.
Test [4] addresses Insulin-like growth factor 1 receptor (Homo sapiens, UniProt P08069). Kind of test: Inhibition of human IGF1R at 500 nM by HotSpot assay relative to control.
Test [5] addresses Tyrosine-protein kinase HCK (Homo sapiens) (UniProt P08631). In words: Inhibition of human HCK at 500 nM by HotSpot assay relative to control.
Test [6] addresses SRSF protein kinase 3 (Homo sapiens) (UniProt Q9UPE1). In words: Inhibition of human STK23 at 500 nM by HotSpot assay relative to control.
Test [7] concerns the target Serine/threonine-protein kinase 33 (Homo sapiens) (UniProt Q9BYT3). In words: Inhibition of human STK33 at 500 nM by HotSpot assay relative to control.
Test [8] concerns the target G protein-coupled receptor kinase 6 (Homo sapiens) (UniProt P43250). In words: Inhibition of human GRK6 at 500 nM by HotSpot assay relative to control.
The target in test [9] is Receptor-interacting serine/threonine-protein kinase 2 (Homo sapiens) (UniProt O43353). Kind of test: Inhibition of human RIPK2 at 500 nM by HotSpot assay relative to control.
Test [10] addresses Death-associated protein kinase 3 (Homo sapiens) (UniProt O43293). Kind of test: Inhibition of human DAPK3 at 500 nM by HotSpot assay relative to control.
In test [11] the target is Tyrosine-protein kinase Srms (Homo sapiens) (UniProt Q9H3Y6). Kind of test: Inhibition of human SRMS at 500 nM by HotSpot assay relative to control.
Test [12] concerns the target Tyrosine-protein kinase Blk (Homo sapiens) (UniProt P51451). In words: Inhibition of human BLK at 500 nM by HotSpot assay relative to control.
The target of test [13] is Dual specificity tyrosine-phosphorylation-regulated kinase 1B (Homo sapiens) (UniProt Q9Y463). In words: Inhibition of human DYRK1B at 500 nM by HotSpot assay relative to control.
The target in test [14] is Serine/threonine-protein kinase PAK 5 (Homo sapiens) (UniProt Q9P286). In words: Inhibition of human PAK5 at 500 nM by HotSpot assay relative to control.
The target of test [15] is T2, Discoidin domain-containing receptor 2 (Homo sapiens) (UniProt Q16832).
T2 sequence (whole entry): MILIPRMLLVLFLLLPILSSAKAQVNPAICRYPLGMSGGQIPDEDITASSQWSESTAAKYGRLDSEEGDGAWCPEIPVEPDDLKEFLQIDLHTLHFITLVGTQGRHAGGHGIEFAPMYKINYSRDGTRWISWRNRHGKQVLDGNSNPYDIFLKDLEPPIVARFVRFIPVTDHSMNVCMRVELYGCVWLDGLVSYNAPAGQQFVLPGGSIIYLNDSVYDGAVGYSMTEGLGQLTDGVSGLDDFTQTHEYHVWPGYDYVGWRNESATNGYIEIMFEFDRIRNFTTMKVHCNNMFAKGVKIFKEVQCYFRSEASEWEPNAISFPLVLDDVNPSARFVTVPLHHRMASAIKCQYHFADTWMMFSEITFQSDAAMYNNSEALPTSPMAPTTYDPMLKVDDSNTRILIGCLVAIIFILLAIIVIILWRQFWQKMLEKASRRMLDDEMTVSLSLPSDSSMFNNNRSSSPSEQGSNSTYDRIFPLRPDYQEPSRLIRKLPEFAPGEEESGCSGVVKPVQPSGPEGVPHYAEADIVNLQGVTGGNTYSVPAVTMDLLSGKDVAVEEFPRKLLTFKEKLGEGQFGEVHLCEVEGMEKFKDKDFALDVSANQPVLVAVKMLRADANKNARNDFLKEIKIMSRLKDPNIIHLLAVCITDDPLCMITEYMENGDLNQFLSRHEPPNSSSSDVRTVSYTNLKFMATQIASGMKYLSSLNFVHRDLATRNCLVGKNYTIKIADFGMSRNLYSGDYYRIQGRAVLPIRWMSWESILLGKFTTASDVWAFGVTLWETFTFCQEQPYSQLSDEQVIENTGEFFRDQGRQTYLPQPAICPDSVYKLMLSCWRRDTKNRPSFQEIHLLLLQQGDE
Kind of test: Inhibition of human DDR2 at 500 nM by HotSpot assay relative to control.

For test [16], the target named is Non-receptor tyrosine-protein kinase TYK2 (Homo sapiens) (UniProt P29597). Kind of test: Inhibition of human TYK2 at 500 nM by HotSpot assay relative to control.
For test [17], the target named is Serine/threonine-protein kinase Nek4 (Homo sapiens) (UniProt P51957). Kind of test: Inhibition of human NEK4 at 500 nM by HotSpot assay relative to control.
The target in test [18] is T3, Mitogen-activated protein kinase 12 (Homo sapiens) (UniProt P53778).
T3 sequence (whole entry): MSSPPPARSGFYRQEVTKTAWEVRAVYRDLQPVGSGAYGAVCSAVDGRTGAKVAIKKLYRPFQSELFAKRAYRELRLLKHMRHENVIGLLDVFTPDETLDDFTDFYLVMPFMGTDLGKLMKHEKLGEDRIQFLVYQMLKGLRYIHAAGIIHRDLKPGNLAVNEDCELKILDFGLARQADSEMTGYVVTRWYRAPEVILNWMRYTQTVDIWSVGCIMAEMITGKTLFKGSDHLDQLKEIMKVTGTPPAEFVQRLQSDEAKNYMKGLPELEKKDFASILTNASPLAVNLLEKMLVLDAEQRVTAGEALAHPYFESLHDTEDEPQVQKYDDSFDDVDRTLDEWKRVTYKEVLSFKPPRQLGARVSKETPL
Kind of test: Inhibition of human P38g at 500 nM by HotSpot assay relative to control.

Sequence of Tyrosine-protein kinase Srms (Homo sapiens) (Q9H3Y6 whole entry): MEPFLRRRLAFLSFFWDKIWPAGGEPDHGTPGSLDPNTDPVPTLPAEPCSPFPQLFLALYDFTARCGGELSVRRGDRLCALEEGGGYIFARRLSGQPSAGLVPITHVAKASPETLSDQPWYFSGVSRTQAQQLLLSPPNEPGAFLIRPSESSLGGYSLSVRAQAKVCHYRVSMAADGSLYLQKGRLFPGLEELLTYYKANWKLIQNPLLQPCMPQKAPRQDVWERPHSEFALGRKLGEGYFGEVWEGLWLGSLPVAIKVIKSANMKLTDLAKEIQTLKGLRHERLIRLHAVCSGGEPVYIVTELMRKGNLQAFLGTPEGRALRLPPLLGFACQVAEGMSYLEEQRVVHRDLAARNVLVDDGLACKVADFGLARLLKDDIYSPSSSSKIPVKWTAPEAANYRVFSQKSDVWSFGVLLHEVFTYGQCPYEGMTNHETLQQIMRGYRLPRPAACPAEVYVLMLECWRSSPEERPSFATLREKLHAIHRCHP
Sequence of Non-receptor tyrosine-protein kinase TYK2 (Homo sapiens) (P29597 whole entry): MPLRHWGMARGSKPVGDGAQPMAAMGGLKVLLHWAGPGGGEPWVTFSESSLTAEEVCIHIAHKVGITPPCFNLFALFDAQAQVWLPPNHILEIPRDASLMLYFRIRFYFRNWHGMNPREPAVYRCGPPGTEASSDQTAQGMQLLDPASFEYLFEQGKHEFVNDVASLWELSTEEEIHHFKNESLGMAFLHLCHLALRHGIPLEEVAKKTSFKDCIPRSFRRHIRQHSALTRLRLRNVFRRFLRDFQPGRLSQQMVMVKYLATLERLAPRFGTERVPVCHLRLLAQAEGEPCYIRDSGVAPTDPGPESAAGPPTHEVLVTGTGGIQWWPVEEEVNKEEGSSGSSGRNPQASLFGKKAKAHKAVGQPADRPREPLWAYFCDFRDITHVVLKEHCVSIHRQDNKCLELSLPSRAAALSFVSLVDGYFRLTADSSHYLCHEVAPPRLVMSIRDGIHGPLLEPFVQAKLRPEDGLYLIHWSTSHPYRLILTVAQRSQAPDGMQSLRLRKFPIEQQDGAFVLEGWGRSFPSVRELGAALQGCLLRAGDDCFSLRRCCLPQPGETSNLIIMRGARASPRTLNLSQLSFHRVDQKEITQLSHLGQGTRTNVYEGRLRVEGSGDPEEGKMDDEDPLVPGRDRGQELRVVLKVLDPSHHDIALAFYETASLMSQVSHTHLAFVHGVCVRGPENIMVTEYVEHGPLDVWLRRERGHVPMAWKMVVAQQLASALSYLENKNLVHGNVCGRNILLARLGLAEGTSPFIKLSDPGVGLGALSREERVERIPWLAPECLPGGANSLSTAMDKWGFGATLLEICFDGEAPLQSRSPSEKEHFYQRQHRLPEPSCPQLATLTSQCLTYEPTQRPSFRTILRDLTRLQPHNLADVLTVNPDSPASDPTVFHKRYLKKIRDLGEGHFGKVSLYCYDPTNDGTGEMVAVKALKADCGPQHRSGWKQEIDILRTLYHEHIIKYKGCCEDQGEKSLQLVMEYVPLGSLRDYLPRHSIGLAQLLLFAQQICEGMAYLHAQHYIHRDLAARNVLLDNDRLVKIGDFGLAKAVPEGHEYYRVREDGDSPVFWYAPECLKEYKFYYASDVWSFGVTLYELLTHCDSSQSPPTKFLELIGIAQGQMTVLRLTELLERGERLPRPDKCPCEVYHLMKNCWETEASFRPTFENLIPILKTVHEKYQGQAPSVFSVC
Sequence of G protein-coupled receptor kinase 6 (Homo sapiens) (P43250 whole entry, looked up): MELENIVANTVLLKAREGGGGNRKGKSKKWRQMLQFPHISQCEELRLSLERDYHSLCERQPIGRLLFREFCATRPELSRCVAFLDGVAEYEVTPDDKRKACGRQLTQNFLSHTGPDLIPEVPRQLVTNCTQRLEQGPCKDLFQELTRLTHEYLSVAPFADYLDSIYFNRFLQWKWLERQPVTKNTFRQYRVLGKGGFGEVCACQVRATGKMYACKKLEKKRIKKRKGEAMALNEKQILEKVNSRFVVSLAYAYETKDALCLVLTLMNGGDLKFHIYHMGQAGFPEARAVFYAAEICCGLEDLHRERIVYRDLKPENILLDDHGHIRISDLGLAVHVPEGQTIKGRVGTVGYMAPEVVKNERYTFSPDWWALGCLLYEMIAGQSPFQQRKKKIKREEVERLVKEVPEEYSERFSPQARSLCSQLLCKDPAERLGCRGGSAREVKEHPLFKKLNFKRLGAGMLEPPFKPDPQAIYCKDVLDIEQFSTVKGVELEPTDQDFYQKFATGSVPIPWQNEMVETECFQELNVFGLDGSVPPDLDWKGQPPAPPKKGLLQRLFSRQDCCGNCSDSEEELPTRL
Sequence of Insulin-like growth factor 1 receptor (P08069 31-736 limits assumed): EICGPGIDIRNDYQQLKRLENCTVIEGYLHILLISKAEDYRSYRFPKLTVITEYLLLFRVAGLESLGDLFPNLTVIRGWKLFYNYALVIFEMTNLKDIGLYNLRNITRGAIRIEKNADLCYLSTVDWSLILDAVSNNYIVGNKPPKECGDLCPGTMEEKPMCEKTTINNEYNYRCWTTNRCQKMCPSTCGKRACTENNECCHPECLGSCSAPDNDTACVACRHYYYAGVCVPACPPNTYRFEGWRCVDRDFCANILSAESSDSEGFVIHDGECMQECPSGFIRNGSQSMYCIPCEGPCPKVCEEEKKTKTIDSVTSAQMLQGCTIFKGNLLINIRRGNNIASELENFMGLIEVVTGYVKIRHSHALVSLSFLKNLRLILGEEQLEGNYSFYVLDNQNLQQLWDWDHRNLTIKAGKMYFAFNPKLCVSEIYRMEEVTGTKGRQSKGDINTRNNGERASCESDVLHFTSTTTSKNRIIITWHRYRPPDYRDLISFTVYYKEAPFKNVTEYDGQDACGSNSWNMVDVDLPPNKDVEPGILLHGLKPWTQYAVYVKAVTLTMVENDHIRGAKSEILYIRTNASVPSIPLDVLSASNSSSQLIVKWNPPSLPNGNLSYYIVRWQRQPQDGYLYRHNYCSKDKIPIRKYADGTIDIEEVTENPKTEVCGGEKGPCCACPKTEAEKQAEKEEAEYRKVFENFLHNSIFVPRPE
Sequence of Insulin-like growth factor 1 receptor (P08069 741-1367 limits assumed): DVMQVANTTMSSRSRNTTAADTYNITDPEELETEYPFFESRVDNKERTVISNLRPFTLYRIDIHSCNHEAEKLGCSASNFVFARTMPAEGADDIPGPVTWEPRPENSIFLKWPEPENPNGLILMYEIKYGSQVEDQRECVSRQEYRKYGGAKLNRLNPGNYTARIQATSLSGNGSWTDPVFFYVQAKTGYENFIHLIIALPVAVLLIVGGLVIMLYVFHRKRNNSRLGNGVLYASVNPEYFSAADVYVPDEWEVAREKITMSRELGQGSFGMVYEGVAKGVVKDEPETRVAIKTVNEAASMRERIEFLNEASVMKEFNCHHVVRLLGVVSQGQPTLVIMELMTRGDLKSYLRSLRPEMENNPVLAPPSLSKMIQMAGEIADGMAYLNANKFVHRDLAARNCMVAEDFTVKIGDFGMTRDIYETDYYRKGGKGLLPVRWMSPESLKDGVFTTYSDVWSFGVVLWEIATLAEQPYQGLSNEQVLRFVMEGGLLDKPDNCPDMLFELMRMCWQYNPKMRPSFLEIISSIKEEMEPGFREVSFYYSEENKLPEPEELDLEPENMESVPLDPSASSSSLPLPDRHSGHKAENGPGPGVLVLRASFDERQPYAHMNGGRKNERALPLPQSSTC
Sequence of Dual specificity tyrosine-phosphorylation-regulated kinase 1B (Homo sapiens) (Q9Y463 whole entry, looked up): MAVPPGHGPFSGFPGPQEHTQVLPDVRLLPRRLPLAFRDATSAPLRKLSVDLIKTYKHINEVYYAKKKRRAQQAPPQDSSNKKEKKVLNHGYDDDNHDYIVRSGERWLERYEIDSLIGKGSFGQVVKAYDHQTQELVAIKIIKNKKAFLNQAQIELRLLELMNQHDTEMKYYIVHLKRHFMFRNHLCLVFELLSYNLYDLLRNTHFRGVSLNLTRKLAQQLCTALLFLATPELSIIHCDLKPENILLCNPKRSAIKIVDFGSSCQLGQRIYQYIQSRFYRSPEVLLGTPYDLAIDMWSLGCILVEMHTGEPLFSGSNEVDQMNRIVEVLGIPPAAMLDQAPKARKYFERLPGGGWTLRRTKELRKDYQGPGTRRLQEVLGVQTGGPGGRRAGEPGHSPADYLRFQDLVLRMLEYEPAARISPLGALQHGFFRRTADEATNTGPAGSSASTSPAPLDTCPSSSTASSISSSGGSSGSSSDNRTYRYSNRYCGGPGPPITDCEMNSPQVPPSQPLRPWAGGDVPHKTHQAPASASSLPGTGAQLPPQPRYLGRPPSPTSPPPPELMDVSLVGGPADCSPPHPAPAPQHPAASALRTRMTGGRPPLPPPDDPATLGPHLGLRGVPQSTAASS
Sequence of Tyrosine-protein kinase HCK (Homo sapiens) (P08631 2-526 limits assumed): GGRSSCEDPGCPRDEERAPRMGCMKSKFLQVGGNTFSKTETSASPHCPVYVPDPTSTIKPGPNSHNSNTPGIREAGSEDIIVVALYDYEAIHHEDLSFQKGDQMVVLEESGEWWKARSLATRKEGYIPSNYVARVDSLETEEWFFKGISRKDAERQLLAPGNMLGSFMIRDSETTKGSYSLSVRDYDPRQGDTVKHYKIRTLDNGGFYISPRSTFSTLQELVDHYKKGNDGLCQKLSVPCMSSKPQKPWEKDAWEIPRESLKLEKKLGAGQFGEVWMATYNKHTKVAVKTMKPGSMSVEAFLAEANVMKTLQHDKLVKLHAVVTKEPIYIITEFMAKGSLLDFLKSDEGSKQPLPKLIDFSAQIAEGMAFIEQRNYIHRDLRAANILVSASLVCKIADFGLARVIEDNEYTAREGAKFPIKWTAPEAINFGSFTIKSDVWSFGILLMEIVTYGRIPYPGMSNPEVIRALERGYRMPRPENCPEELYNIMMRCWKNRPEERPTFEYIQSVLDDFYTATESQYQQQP

Turning to `Nc1n[nH]c2nnc(-c3c(-c4ccccc4)nn4ccccc34)cc12`, the inhibition in test [1] was 10.8%; in [2], 17.3%; in test [3], -1.27%; in [4], -1.88%; in test [5] it was 8.92%; in test [6] it was 11.2%. Also, the inhibition was -0.39% in [7]; 0.69% in test [8]; 13% in [9]; -2.11% in [10]; 7.04% in test [11]; 1.92% in test [12]. Also, the inhibition in test [13] is -0.86%; in test [14], 1.83%; in test [15], -0.55%; in test [16] it was -3.67%; in test [17] it was 11.6%; in test [18], -3.94%.

Turning to `Oc1n[nH]c2nnc(-c3c(-c4ccccc4)nn4ccccc34)cc12`, the inhibition was 1.57% in [1]; 12.8% in test [2]; 2.27% in test [3]; -4.89% in test [4]; 7.7% in [5]; 0.76% in [6]. Besides, the inhibition in test [7] was -0.22%; in test [8], 1.01%; in test [9], 11.9%; in [10] it was -0.67%; in test [11], 0.83%; in test [12], 2.09%. Further, the inhibition in [13] is -1.78%; in [14], 11.6%; in test [15], -2.78%; in test [16], -3.67%; in [17], 5.04%; in [18] it was -4.33%.

For orientation: inhibition means the relative decrease from the control value, in per cent.
